The structures appear in SMILES notation.

Experiment [1] has as its target T1, P2Y6 receptor (hP2Y6R) (Homo sapiens, UniProt Q15077).
T1 construct: gene P2RY6
As to the kind of experiment: FLIPR calcium mobilization, inhibition of UDP ([…]) response in […]1-hP2Y6R cells. It counts as cell-based. Conditions: read-out: P2Y6R, mean IC50 ± SEM (μM) or % inhibition at 400 μM^a. A general note: A change in cytosolic calcium serves as a functional read-out for many receptors and channels.

The target in experiment [2] is T2, P2Y14 receptor (hP2Y14R) (Homo sapiens, UniProt Q15391).
T2 construct: gene P2RY14
T2 sequence (Q15391 1-338): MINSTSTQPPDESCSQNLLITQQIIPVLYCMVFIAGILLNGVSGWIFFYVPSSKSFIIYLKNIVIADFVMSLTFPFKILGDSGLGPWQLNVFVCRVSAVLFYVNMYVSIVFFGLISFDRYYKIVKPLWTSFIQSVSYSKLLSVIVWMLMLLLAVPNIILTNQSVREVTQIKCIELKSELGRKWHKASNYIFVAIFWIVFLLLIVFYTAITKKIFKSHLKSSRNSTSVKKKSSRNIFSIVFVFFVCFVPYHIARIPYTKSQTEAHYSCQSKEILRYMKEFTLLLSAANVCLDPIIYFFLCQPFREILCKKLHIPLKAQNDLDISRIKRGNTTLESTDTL
Description: competitive binding vs fluorescent antagonist MRS4174, whole CHO-hP2Y14R cells, flow cytometry; single concentration […]. It counts as cell-based. Conditions: read-out: P2Y14, % inhibition at 100 μM (n = 3). For orientation: In flow cytometry, cells or beads pass a laser one at a time.

T1 sequence (Q15077 whole entry): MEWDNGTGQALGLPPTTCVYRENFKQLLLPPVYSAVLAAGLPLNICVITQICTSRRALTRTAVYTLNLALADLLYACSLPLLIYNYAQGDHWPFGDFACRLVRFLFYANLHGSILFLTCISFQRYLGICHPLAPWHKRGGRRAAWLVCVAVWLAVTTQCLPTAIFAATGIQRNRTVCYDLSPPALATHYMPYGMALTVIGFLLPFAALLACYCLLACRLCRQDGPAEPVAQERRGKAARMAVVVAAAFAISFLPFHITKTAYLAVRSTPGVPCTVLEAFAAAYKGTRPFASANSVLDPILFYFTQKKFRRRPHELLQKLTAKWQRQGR

For orientation: IC50 means the concentration needed to halve the response being measured. Take `CCNC(=O)c1cc2c(-c3cc(C(C)(C)O)ccc3Oc3c(C)cc(F)cc3C)cn(C)c(=O)c2[nH]1` [ABBV-744]: in experiment [1], the IC50 was determined as 75.7 ± 11.5 µM.
On the same count and under the same terms, the value for `COc1cccc([C@@H](Oc2ccc3c(cnn3-c3ccc(F)cc3)c2)[C@H](C)NC(=O)C(F)(F)F)c1` [AZD5423] was 574 ± 181 µM.
The inhibition is the change of the read-out against control, counted positive when it falls. As for `Cc1cc(C(=O)Nc2cc(Oc3ccc4nc(NC(=O)C5CC5)cn4n3)ccc2C)n(C)n1` [TAK-593], the inhibition at 100 µM in experiment [2] came to 50 ± 4%.

For the origin of these results see PMC11554998, “Machine learning-aided search for ligands of P2Y6 and other P2Y receptors” (Purinergic Signalling, 2024).
